Measurements as given in ChEMBL document CHEMBL1155430, “Discovery of novel and potent benzhydryl-tropane trypanocides highly selective for Trypanosoma cruzi” (Bioorg Med Chem Lett, 2010).

Columns and labels:
L6 = assay: Cytotoxicity against rat L6 cells; type: cell-based
Trypanosoma cruzi = assay: Antiparasitic activity against Trypanosoma cruzi Tulahuen C2C4 amastigotes; type: functional, organism-based
Leishmania donovani = assay: Antiparasitic activity against Leishmania donovani MHOM/ET/67/L82 amastigotes; type: functional, organism-based
[1] = tested on: Trypanosoma brucei rhodesiense; assay: Antiparasitic activity against Trypanosoma brucei rhodesiense STIB900 bloodstream form; type: functional, organism-based
[2] = Selectivity index, ratio of EC50 for Trypanosoma cruzi Tulahuen C2C4 amastigotes to the EC50 for rat L6 cells
Plasmodium falciparum = assay: Antiparasitic activity against Plasmodium falciparum 3D7 at erythrocytic stage; type: functional, organism-based
Trypanothione reductase = Trypanothione reductase (Trypanosoma cruzi, UniProt P28593); assay: Inhibition of Trypanosoma cruzi X10/1 recombinant trypanothione reductase assessed as increase in absorbance at 410 nm due to the formation of TNB
Sequence of Trypanothione reductase (P28593 whole entry): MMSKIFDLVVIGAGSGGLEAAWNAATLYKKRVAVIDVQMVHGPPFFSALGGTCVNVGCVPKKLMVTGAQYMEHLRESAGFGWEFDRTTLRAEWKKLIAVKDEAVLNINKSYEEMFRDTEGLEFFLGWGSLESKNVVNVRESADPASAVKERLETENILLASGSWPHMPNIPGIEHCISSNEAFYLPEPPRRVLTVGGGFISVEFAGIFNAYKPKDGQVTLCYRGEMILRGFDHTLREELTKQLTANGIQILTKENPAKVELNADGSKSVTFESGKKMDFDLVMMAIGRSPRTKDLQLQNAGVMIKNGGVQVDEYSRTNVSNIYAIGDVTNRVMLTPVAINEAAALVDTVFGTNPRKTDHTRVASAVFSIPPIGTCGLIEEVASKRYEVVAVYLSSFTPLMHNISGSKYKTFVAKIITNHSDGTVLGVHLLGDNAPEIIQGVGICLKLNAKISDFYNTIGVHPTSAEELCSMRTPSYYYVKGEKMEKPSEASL

`CN1C2CCC1CC(=NOC(CCCc1ccccc1)c1ccc(Cl)cc1)C2` (stereo not drawn) showed an EC50 (L6) of 17 µM and an EC50 (Trypanosoma cruzi) of 4.3 µM.
In the case of `CN1C2CCC1CC(=NOC(Cc1ccc(Cl)cc1)c1ccccc1)C2` (stereo not drawn), the EC50 (L6) is reported as 49 µM and the EC50 (Trypanosoma cruzi) is reported as 1.9 µM.
In the case of `Clc1ccc(C(ON=C2CCCCC2)c2ccccc2)cc1` (stereo not drawn), the EC50 (L6) is reported as > 100 µM and the EC50 (Trypanosoma cruzi) is reported as > 10 µM.
Work on `CCCCCCCCCCCCCCCCOP(=O)([O-])OCC[N+](C)(C)C` [MILTEFOSINE] yielded an EC50 (Leishmania donovani) of 0.27 µM.
For `CN1C2CCC1CC(=NOC(c1ccccc1)c1ccc(I)cc1)C2` (stereo not drawn), the EC50 (L6) was 39 µM and the EC50 (Trypanosoma cruzi) was 0.04 µM.
Work on `CN1CCC(=NOC(c2ccccc2)c2ccc(Cl)cc2)CC1` (stereo not drawn) yielded an EC50 (L6) of 50 µM and an EC50 (Trypanosoma cruzi) of 3.7 µM.
`OCCN1C2CCC1CC(=NOC(c1ccccc1)c1ccc(Cl)cc1)C2` (stereo not drawn) gave an EC50 (L6) of 47 µM and an EC50 (Trypanosoma cruzi) of 7.8 µM.
With `CN1C2CCC1CC(=NOC(c1ccc(Cl)cc1)c1cscn1)C2` (stereo not drawn) the EC50 (L6) was 71 µM and the EC50 (Trypanosoma cruzi) was 0.8 µM.
With `CN1C2CCC1CC(=NOC(c1ccc(Cl)cc1)c1nccs1)C2` (stereo not drawn) the EC50 (L6) was > 100 µM and the EC50 (Trypanosoma cruzi) was 2.3 µM.
Work on `CN1C2CCC1CC(=NOC(c1ccccc1)c1ccccc1Cl)C2` (stereo not drawn) yielded an EC50 (L6) of 15 µM and an EC50 (Trypanosoma cruzi) of 6.8 µM.
`CN1C2CCC1CC(=NOC(Cc1ccccc1)c1ccc(Cl)cc1)C2` (stereo not drawn) gave an EC50 (L6) of 40 µM and an EC50 (Trypanosoma cruzi) of 2.1 µM.
With `CN1C2CCC1CC(=NOC(c1ccc(Cl)cc1)c1cncs1)C2` (stereo not drawn) the EC50 (L6) was > 100 µM and the EC50 (Trypanosoma cruzi) was 6 µM.
In the case of `CN1C2CCC1CC(=NOC1c3ccccc3-c3ccccc31)C2`, the EC50 (L6) is reported as 68 µM and the EC50 (Trypanosoma cruzi) is reported as > 10 µM.
`CN1C2CCC1CC(=NOC(c1ccccc1)c1ccc(C#N)cc1)C2` (stereo not drawn) gave an EC50 (L6) of 53 µM and an EC50 (Trypanosoma cruzi) of 0.4 µM.
Molecule `CN1C2CCC1CC(=NOC(c1ccccc1)c1ccc(Br)cc1)C2` (stereo not drawn) has an EC50 (L6) of 40 µM and an EC50 (Trypanosoma cruzi) of 0.04 µM.
With `CN1C2CCC1CC(=NOC(c1ccccc1)c1ccc(F)cc1)C2` (stereo not drawn) the EC50 (L6) was 50 µM and the EC50 (Trypanosoma cruzi) was 0.8 µM.
With `COc1ccc(C(ON=C2CC3CCC(C2)N3C)c2ccccc2)cc1` (stereo not drawn) the EC50 (L6) was > 100 µM and the EC50 (Trypanosoma cruzi) was 0.3 µM.
`Clc1ccc(C(ON=C2CC3CCC(C2)N3)c2ccccc2)cc1` (stereo not drawn) showed an EC50 (L6) of 9.8 µM and an EC50 (Trypanosoma cruzi) of 2 µM.
In the case of `CN1C2CCC1CC(=NOCc1ccc(Cl)cc1)C2`, the EC50 (L6) is reported as > 100 µM and the EC50 (Trypanosoma cruzi) is reported as > 10 µM.
For `CN1C2CCC1CC(=NOC(c1ccc(Cl)cc1)c1cccnc1)C2` (stereo not drawn), the EC50 (L6) was > 100 µM and the EC50 (Trypanosoma cruzi) was 0.5 µM.
`Nc1nc(N)nc(Nc2ccc([As]3SCC(CO)S3)cc2)n1` (stereo not drawn) [MELARSOPROL] gave an EC50 [1] of 0.017 µM.
With `CN1C2CCC1CC(=NOC(c1ccccc1)c1ccc(C(F)(F)F)cc1)C2` (stereo not drawn) the “Ratio EC50” value [2] was >1000, the EC50 (L6) was 35 µM and the EC50 (Trypanosoma cruzi) was 0.03 µM.
In the case of `CN(C)CCN1C2CCC1CC(=NOC(c1ccccc1)c1ccc(Cl)cc1)C2` (stereo not drawn), the EC50 (L6) is reported as 15 µM and the EC50 (Trypanosoma cruzi) is reported as 6.9 µM.
With `COc1ccccc1C(ON=C1CC2CCC(C1)N2C)c1ccccc1` (stereo not drawn) the EC50 (L6) was > 100 µM and the EC50 (Trypanosoma cruzi) was > 10 µM.
With `CN1C2CCC1CC(=NOC(CCc1ccccc1)c1ccc(Cl)cc1)C2` (stereo not drawn) the EC50 (L6) was 20 µM and the EC50 (Trypanosoma cruzi) was 6.5 µM.
For `CN1C2CCC1CC(=NOCc1ccccc1)C2`, the EC50 (L6) was > 100 µM and the EC50 (Trypanosoma cruzi) was > 10 µM.
Molecule `CN1C2CCC1CC(=NOC(c1ccc(Cl)cc1)c1ccc(Cl)cc1)C2` has an EC50 (L6) of 16 µM and an EC50 (Trypanosoma cruzi) of 6 µM.
Molecule `COc1cc([C@@H]2c3cc4c(cc3[C@H](O)[C@H]3COC(=O)[C@H]23)OCO4)cc(OC)c1OC` [PODOFILOX] has an EC50 (L6) of 0.014 µM.
In the case of `CCN(CC)CCCC(C)Nc1ccnc2cc(Cl)ccc12` (stereo not drawn) [CHLOROQUINE], the EC50 (Plasmodium falciparum) is reported as 0.0094 µM.
With `CN1C2CCC1CC(=NOC(c1ccncc1)c1ccc(Cl)cc1)C2` (stereo not drawn) the EC50 (L6) was > 100 µM and the EC50 (Trypanosoma cruzi) was 6.2 µM.
With `CC(C)=NOC(c1ccccc1)c1ccc(Cl)cc1` (stereo not drawn) the EC50 (L6) was > 100 µM and the EC50 (Trypanosoma cruzi) was > 10 µM.
For `CN1C2CCC1CC(=NOC(CCc1ccc(Cl)cc1)c1ccccc1)C2` (stereo not drawn), the EC50 (L6) was 16 µM and the EC50 (Trypanosoma cruzi) was 0.8 µM.
With `CN1C2CCC1CC(=NOC(c1ccccc1)c1ccccc1)C2` the EC50 (L6) was > 100 µM and the EC50 (Trypanosoma cruzi) was 1.3 µM.
`O=C(Cn1ccnc1[N+](=O)[O-])NCc1ccccc1` [BENZNIDAZOLE] gave an EC50 (Trypanosoma cruzi) of 1.8 µM.
For `CN1C2CCC1CC(=NOC(c1ccc(Cl)cc1)c1ccccn1)C2` (stereo not drawn), the EC50 (L6) was > 100 µM and the EC50 (Trypanosoma cruzi) was 2.9 µM.
`CN1C2CCC1CC(=NOC(c1ccccc1)c1cccc(Cl)c1)C2` (stereo not drawn) gave an EC50 (L6) of 19 µM and an EC50 (Trypanosoma cruzi) of 2.1 µM.
`CN1C2CCC1CC(=NOC(c1ccccc1)c1ccc(Cl)cc1)C2` (stereo not drawn) gave an EC50 (Trypanothione reductase) of 35 µM, an EC50 [1] of 3 µM and an EC50 (Plasmodium falciparum) of 7.5 µM. For the same molecule, the EC50 (Leishmania donovani) was > 30 µM, the EC50 (L6) was 36 µM and the EC50 (Trypanosoma cruzi) was 0.11 µM.
With `Cc1ccc(C(ON=C2CC3CCC(C2)N3C)c2ccccc2)cc1` (stereo not drawn) the EC50 (L6) was 51 µM and the EC50 (Trypanosoma cruzi) was 0.3 µM.
`COc1cccc(C(ON=C2CC3CCC(C2)N3C)c2ccccc2)c1` (stereo not drawn) showed an EC50 (L6) of 48 µM and an EC50 (Trypanosoma cruzi) of 2 µM.
